Holding throughout (type): in vivo
Assay [1] deals with HORVS = barley (Hordeum vulare). Put plainly: Postemergence herbicidal activity in cereal crops, barley. The following applies: post-emergence, 480 h, post-emergent, barley (crop), after 20-22 days; for pest or weed control at 17.5 g/ha: 17.5 g ai/ha; for pest or weed control at 70 g/ha: 70 g ai/ha; for pest or weed control at 35 g/ha: 35 g ai/ha. As for the experimental part:
(§1) Seeds of the desired test plant species were planted in Sun Gro MetroMix® 306 planting mixture, which typically has a pH of 6.0 to 6.8 and an organic matter content of about 30 percent, in plastic pots with a surface area of 103.2 square centimeters. When required to ensure good germination and healthy plants, a fungicide treatment and/or other chemical or physical treatment was applied. The plants were grown for 7-36 days in a greenhouse with an approximate 14 hour photoperiod which was maintained at about 18° C. during the day and 17° C. during the night. Nutrients and water were added on a regular basis and supplemental lighting was provided with overhead metal halide 1000-Watt lamps as necessary. The plants were employed for testing when they reached the second or third true leaf stage.
(§2) A weighed amount, determined by the highest rate to be tested, of each test compound was placed in a 25 mL glass vial and was dissolved in 8 mL of a 97:3 v/v mixture of acetone and DMSO to obtain concentrated stock solutions. […] The concentrated stock solutions obtained were diluted with 16 mL of an aqueous mixture containing acetone, water, isopropyl alcohol, DMSO, Agri-dex crop oil concentrate, and Triton X-77 surfactant in a 64.7:26.0:6.7:2.0:0.7:0.01 v/v ratio to obtain spray solutions containing the highest application rates. Additional application rates were obtained by serial dilution of 12 mL of the high rate solution into a solution containing 4 mL of 97:3 v/v mixture of acetone and DMSO and 8 mL of an aqueous mixture containing acetone, water, isopropyl alcohol, DMSO, Agri-dex crop oil concentrate, and Triton X-77 surfactant in a 48.5:39.0:10.0:1.5:1.0:0.02 v/v ratio to obtain ½×, ¼×, ⅛× and 1/16× rates of the high rate. Compound requirements are based upon a 12 mL application volume at a rate of 187 L/ha. Formulated compounds were applied to the plant material with an overhead Mandel track sprayer equipped with a 8002E nozzles calibrated to deliver 187 L/ha over an application area of 0.503 square meters at a spray height of 18 inches (43 cm) above average plant canopy height. Control plants were sprayed in the same manner with the blank.
(§3) The treated plants and control plants were placed in a greenhouse as described above and watered by sub-irrigation to prevent wash-off of the test compounds. After 20-22 days, the condition of the test plants as compared with that of the untreated plants was determined visually and scored on a scale of 0 to 100 percent where 0 corresponds to no injury and 100 corresponds to complete kill.

In assay [2] the test system is ORYSA = rice (Orysa sativa var. Japonica). Nature of the assay: Herbicidal activity in transplanted paddy rice, rice. As to conditions: Oryza sativa, 480 h, water-injected paddy, rice (crop), after 20-22 days; for pest or weed control at 70 g/ha: 70 g ai/ha; for pest or weed control at 17.5 g/ha: 17.5 g ai/ha; for pest or weed control at 140 g/ha: 140 g ai/ha; for pest or weed control at 35 g/ha: 35 g ai/ha. As for the experimental part:
Weed seeds or nutlets of the desired test plant species were planted in puddled soil (mud) prepared by mixing a non-sterilized mineral soil (28 percent silt, 18 percent clay, and 54 percent sand, with a pH of about 7.3 to 7.8 and an organic matter content of about 1.0 percent) and water at a ratio of 100 kg of soil to 19 L of water. The prepared mud was dispensed in 250 mL aliquots into 480 mL non-perforated plastic pots with a surface area of 91.6 square centimeters leaving a headspace of 3 centimeters in each pot. Rice seeds were planted in Sun Gro MetroMix® 306 planting mixture, which typically has a pH of 6.0 to 6.8 and an organic matter content of about 30 percent, in plastic plug trays. Seedlings at the second or third leaf stage of growth were transplanted into 650 mL of mud contained in 960 mL non-perforated plastic pots with a surface area of 91.6 square centimeters 4 days prior to herbicide application. The paddy was created by filling the 3 centimeter headspace of the pots with water. When required to ensure good germination and healthy plants, a fungicide treatment and/or other chemical or physical treatment was applied. The plants were grown for 4-14 days in a greenhouse with an approximate 14 hour photoperiod which was maintained at about 29° C. during the day and 26° C. during the night. Nutrients were added as Osmocote (17:6:10, N:P:K+minor nutrients) at 2 g (grams) per cup. Water was added on a regular basis to maintain the paddy flood, and supplemental lighting was provided with overhead metal halide 1000-Watt lamps as necessary. The plants were employed for testing when they reached the second or third true leaf stage. A weighed amount, determined by the highest rate to be tested, of each test compound was placed in a 120 mL glass vial and was dissolved in 20 mL of acetone to obtain concentrated stock solutions. […] The concentrated stock solutions obtained were diluted with 20 mL of an aqueous mixture containing 0.01% Tween 20 (v/v). Application rates of ½×, ¼×, ⅛× and 1/16× of the high rate were obtained by injecting an appropriate amount of the stock solution into the aqueous layer of the paddy. Control plants were treated in the same manner with the solvent blank. The treated plants and control plants were placed in a greenhouse as described above and water was added as needed to maintain a paddy flood. After 20-22 days, the condition of the test plants as compared with that of the untreated plants was determined visually and scored on a scale of 0 to 100 percent where 0 corresponds to no injury and 100 corresponds to complete kill.

In a further assay the test system is VERPE = Veronica persica. Put plainly: Postemergence herbicidal activity in cereal crops, Veronica persica. The following applies: post-emergence, 480 h, post-emergent, after 20-22 days; for pest or weed control at 17.5 g/ha: 17.5 g ai/ha; for pest or weed control at 70 g/ha: 70 g ai/ha; for pest or weed control at 35 g/ha: 35 g ai/ha. As for the experimental part: as §1, §2, §3

A further assay relates to GALAP = Galium aparine. Nature of the assay: Postemergence herbicidal activity in cereal crops, Galium aparine. The following applies: post-emergence, 480 h, post-emergent, after 20-22 days; for pest or weed control at 17.5 g/ha: 17.5 g ai/ha; for pest or weed control at 70 g/ha: 70 g ai/ha; for pest or weed control at 35 g/ha: 35 g ai/ha. As to the method:
as §1, §2, §3

Structures are written as SMILES.

Consider `COC(=O)c1nc(-c2ccc(Cl)c(OC)c2F)nc(N)c1Br` [Compound 13, 6-amino-5-bromo-2-(4-chloro-2-fluoro-3-methoxyphenyl)-pyrimidine-4-carboxylic acid methyl ester], for which the results for the pest or weed control at 17.5 g/ha (in assay [1]; in the assay with VERPE = Veronica persica; in the assay on GALAP = Galium aparine) were 0%, 95% and 90%, respectively. For the same compound, the pest or weed control (in general, how far the test organism was held down) at 70 g/ha in assay [2] is 0%.

In the case of `COC(=O)c1nc(-c2ccc(Cl)c(OC)c2F)nc(N)c1Cl` [Compound 3, 6-amino-5-chloro-2-(4-chloro-2-fluoro-3-methoxyphenyl)-pyrimidine-4-carboxylic acid methyl ester], the pest or weed control at 17.5 g/ha in assay [1] came to 0%; in assay [2] it was 0%; in the assay on VERPE = Veronica persica it was 99%; in the assay with GALAP = Galium aparine, 95%.

`COC(=O)c1nc(-c2ccc(Cl)c(OCC(F)F)c2F)nc(N)c1Cl` [Compound 10, 6-Amino-5-chloro-2-[4-chloro-3-(2,2-difluoroethoxy)-2-fluorophenyl]-pyrimidine-4-carboxylic acid methyl ester]: the pest or weed control at 70 g/ha stood at 0% in assay [1], 20% in the assay on VERPE = Veronica persica and 65% in the assay with GALAP = Galium aparine. Besides, the pest or weed control at 140 g/ha in assay [2] was 0%.

For `COC(=O)c1nc(-c2ccc(Cl)c(N(C)C)c2F)nc(N)c1Cl` [Compound 8, 6-Amino-5-chloro-2-(4-chloro-3-dimethylamino-2-fluorophenyl)pyrimidine-4-carboxylic acid methyl ester], the pest or weed control at 35 g/ha in assay [1] stood at 0%; in assay [2], 0%; in the assay with VERPE = Veronica persica, 95%; in the assay on GALAP = Galium aparine, 70%.

`COC(=O)c1nc(-c2ccc(Cl)c(C(F)F)c2F)nc(N)c1Cl` [Compound 7, 6-Amino-5-chloro-2-(4-chloro-3-difluoromethyl-2-fluorophenyl)pyrimidine-4-carboxylic acid methyl ester]: the figures for the pest or weed control at 17.5 g/ha (in assay [1]; in the assay with VERPE = Veronica persica; with GALAP = Galium aparine) were 0%, 95% and 60%, respectively. The compound also displayed a pest or weed control at 140 g/ha in assay [2] of 0%.

`COC(=O)c1nc(-c2ccc3c(c2F)OCO3)nc(N)c1Cl` [Compound 9, 6-Amino-5-chloro-2-(4-fluorobenzo[1,3]dioxol-5-yl)pyrimidine-4-carboxylic acid methyl ester]: the results for the pest or weed control at 70 g/ha (in assay [1]; with VERPE = Veronica persica; with GALAP = Galium aparine) were 0%, 30% and 90%, respectively. This compound returned a pest or weed control at 35 g/ha in assay [2] of 0%.

Regarding `COC(=O)c1nc(-c2c(F)cc(Cl)c(OC)c2F)nc(N)c1Cl` [Compound 2, 6-amino-5-chloro-2-(4-chloro-2,6-difluoro-3-methoxy-phenyl)pyrimidine-4-carboxylic acid methyl ester], the pest or weed control at 35 g/ha in assay [1] was 0%; with VERPE = Veronica persica, 50%; in the assay on GALAP = Galium aparine, 95%. Besides, the pest or weed control at 70 g/ha in assay [2] came out at 0%.

In the case of `COC(=O)c1nc(-c2ccc(Cl)c(OC)c2Cl)nc(N)c1Cl` [Compound 6, 6-Amino-5-chloro-2-(2,4-dichloro-3-methoxyphenyl)pyrimidine-4-carboxylic acid methyl ester], the pest or weed control at 70 g/ha in assay [1] is 0%; with VERPE = Veronica persica, 99%; in the assay on GALAP = Galium aparine it was 85%. Moreover, the pest or weed control at 17.5 g/ha in assay [2] turned out to be 0%.

In the case of `CCOc1c(Cl)ccc(-c2nc(N)c(Cl)c(C(=O)OC)n2)c1F` [Compound 1, 6-amino-5-chloro-2-(4-chloro-3-ethoxy-2-fluorophenyl)-pyrimidine-4-carboxylic acid methyl ester], the pest or weed control at 35 g/ha in assay [1] is 0%; in the assay with VERPE = Veronica persica it was 20%; with GALAP = Galium aparine it was 99%. In addition, the pest or weed control at 17.5 g/ha in assay [2] turned out to be 5%.

Source of the values: patent US9199943B2, “2-(poly-substituted aryl)-6-amino-5-halo-4-pyrimidinecarboxylic acids and their use as herbicides” (Dow AgroSciences, LLC., priority 2006, dated 2015).
